According to US6635649B2, “Piperazinedione compounds” (priority 2000, dated 2003):

CC(=O)N1CC(=O)NC(Cc2ccc(OCc3ccccc3)cn2)C1=O (centres unmarked) [Compound 12, 1-acetyl-3-[(5-benzyloxypyridin-2-yl)methyl]piperazine-2,5-dione] gave a melting point of 215 to 216 °C.
O=c1[nH]c(=Cc2ccc(OCc3ccccc3)cn2)c(=O)[nH]c1=Cc1ccccn1 [Compound 9, 3-[(5-benzyloxypyridin-2-yl)methylidene]-6-[(2-pyridinyl)methylidene]piperazine-2,5-dione] showed a melting point of 248 to 250 °C.
With O=c1[nH]c(=Cc2ccc(OCc3ccccc3)cn2)c(=O)[nH]c1=Cc1ccc(OCc2ccccc2)cn1 [Compound 10, 3,6-di[(5-phenylmethoxypyridin-2-yl)methylidene]piperazine-2,5-dione] the melting point was 283 to 328 °C.
In the case of O=C1NC(Cc2ccc(OCc3ccccc3)cn2)C(=O)NC1Cc1ccc(OCc2ccccc2)cn1 (centres unmarked) [Compound 13, 3,6-di[(5-benzyloxypyridin-2-yl)methyl]piperazine-2,5-dione], the melting point is reported as 228 to 231 °C.
O=c1[nH]c(=Cc2ccco2)c(=O)[nH]c1=Cc1ccc(OCc2ccccc2)cn1 [Compound 7, 3-[(5-benzyloxypyridin-2-yl)methylidene]-6-[(furan-2-yl)methylidene]piperazine-2,5-dione] showed a melting point of 256 to 257 °C.
